Broadly, the IC50 is the concentration that inhibits the measured activity by half. As usually defined, the inhibition is the share of the control response that was lost under treatment.

Series [1] has as its target T1, Aromatase (Homo sapiens, UniProt P11511).
T1 sequence (P11511 whole entry): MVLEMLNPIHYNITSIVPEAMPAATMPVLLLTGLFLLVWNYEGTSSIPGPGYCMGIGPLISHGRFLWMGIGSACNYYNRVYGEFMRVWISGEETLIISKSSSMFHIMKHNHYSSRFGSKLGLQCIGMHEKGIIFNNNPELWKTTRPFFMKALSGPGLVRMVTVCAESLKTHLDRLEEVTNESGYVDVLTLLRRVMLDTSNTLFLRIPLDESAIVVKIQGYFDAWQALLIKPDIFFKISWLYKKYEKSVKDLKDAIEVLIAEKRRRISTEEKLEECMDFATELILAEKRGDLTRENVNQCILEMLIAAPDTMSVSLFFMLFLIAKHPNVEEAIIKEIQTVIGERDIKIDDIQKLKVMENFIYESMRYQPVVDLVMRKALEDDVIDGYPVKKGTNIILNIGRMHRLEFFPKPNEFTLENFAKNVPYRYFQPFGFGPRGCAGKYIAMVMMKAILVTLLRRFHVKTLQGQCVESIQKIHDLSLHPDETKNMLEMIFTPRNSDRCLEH
The experiment in a line: Ratio of aminoglutethimide IC50 to compound IC50 for Homo sapiens (human) aromatase.

Series [2] concerns the target T1, Aromatase. Briefly: Inhibition of Homo sapiens (human) aromatase assessed as 3H2O formation using [1beta,2beta-3H]testosterone as substrate by liquid scintillation counting analysis.
For series [3], the target named is T1, Aromatase. Briefly: Inhibition of Homo sapiens (human) aromatase assessed as 3H2O formation using [1beta,2beta-3H]testosterone as substrate at 36 uM by liquid scintillation counting analysis.

As to `O=C1/C(=C/c2cccc(OCCCn3ccnc3)c2)Cc2ccccc21`, the “Ratio IC50” value on Aromatase [1] is given as 42.5. In addition, at Aromatase [2], the IC50 came to 700 nM.
For the compound `COc1cc(/C=C2\Cc3ccccc3C2=O)ccc1OCCCn1ccnc1`, the “Ratio IC50” value at Aromatase [1] was found to be 54.1.
Turning to `O=C1/C(=C/c2ccccc2OCCCCl)Cc2ccccc21`, the inhibition at 36 µM at Aromatase [3] came out at 8%.
Regarding `COc1cc(/C=C2\Cc3ccccc3C2=O)ccc1OCCN(C)C`, the “inhibition (INH)” value on Aromatase [3] (36 µM) was “Not Active”.
Regarding `COc1cc(/C=C2\Cc3ccccc3C2=O)ccc1OCCCCl`, the inhibition at 36 µM at Aromatase [3] was 8.5%.
Still for that read-out and setting: then `O=C1/C(=C/c2c[nH]c3ccccc23)Cc2ccccc21`, with 6%; and `O=C1/C(=C/c2cccc(OCCCCl)c2)Cc2ccccc21`, with 13%.
`O=C1/C(=C/c2ccccc2OCCCn2ccnc2)Cc2ccccc21`: the “Ratio IC50” value at Aromatase [1] was 26.6. The IC50 on Aromatase [2] came out at 1100 nM.
Consider `COc1ccc(/C=C2\Cc3ccccc3C2=O)cc1OCCCCl`, for which the inhibition at 36 µM on Aromatase [3] is 8%.
`COc1ccc(/C=C2\Cc3ccccc3C2=O)cc1OCCCn1ccnc1`: the “Ratio IC50” value at Aromatase [1] was 22.5. Besides, the IC50 at Aromatase [2] turned out to be 1340 nM.
